Assay results as given in patent publication US8618095B2 (Rigel Pharmaceuticals, Inc., priority 2010, dated 2013).

tested on: Human mast cells (CHMC); test: LD Tryptase release assay in CHMC (mast cell activation induced by FcγR cross-linking); type: cell-based; details: Homo sapiens, Mast cell, anti-IgG stimulation, activity of tryptase released upon degranulation
Protocol: Compounds were assayed for inhibition of mast cell activation induced by FcγR cross-linking by measuring the activity of tryptase released upon degranulation as follows:
Human mast cells were cultured and differentiated from […] progenitor cell as described in U.S. Patent Publication No. 2005-234049, incorporated herein by reference. For example, 65 μL of various concentrations of the compound to be assayed were prepared in MT (137 mM NaCl, 2.7 mM KCl, 1.8 mM CaCl2, 1.0 mM MgCl2, 5.6 mM Glucose, 20 mM Hepes (pH 7.4), 0.1% Bovine Serum Albumin, (Sigma A4503)) containing 2% MeOH and 1% DMSO, or control buffer were added to duplicate 96-well V-bottom plates. Pelleted and re-suspended (in warm MT) CHMC cells (65 μL) were added to each 96-well plate, mixed and incubated for 1 hour at 37° C. 25 μl of 6× anti-IgG Rabbit anti-human IgG, Affinity purified (Bethyl Laboratories Cat No. A80-105A3) final concentration 1 μg/mL, was added to the test wells. MT (25 μL) was added to control wells. After a 60-minute incubation at 37° C., cells and cell debris were pelleted by centrifugation at 1000 rpm for 10 min and tryptase and leukotriene C4 levels were measured.
To measure tryptase levels, 25 μL of supernatant from each well was transferred to a fresh 96-well black bottom plate, to which 100 μL of fresh tryptase substrate solution [(Z-Ala-Lys-Arg-AMC2TFA; Enzyme Systems Products, #AMC-246)] 1:2000 in tryptase assay buffer [0.1 M Hepes (pH 7.5), 10% w/v Glycerol, 10 μM Heparin (Sigma H-4898) 0.01% NaN3] was added. After 30 minute incubation at room temperature, the optical density of the plates is measured at 355 nm/460 nm on a spectrophotometric plate reader. Table 1 provides the IC50 values.
Compounds of the disclosure were assayed for their ability to inhibit mast cell activation induced by FcγR cross-linking by measuring the activity of tryptase released upon degranulation. The IC50 values for the LD Tryptase assay are presented in Table 2, in which “0” is >100 μM; “A” is 1-100 μM; “B” is 0.5-1 μM; “C” is 0.1-0.5 μM; and “D” is less than 0.1 μM: […]

Row | Compound | IC50 [nM]
1 | C[C@H]1CN(c2ccc(Nc3ncc(F)c(Nc4ccc5c(n4)NC(=O)CO5)n3)cn2)[C@@H](C)CO1 (racemic) [Compound 104, rac-N4-(3,4-dihydro-3-oxo-2H-pyrido[3,2-b][1,4]oxazin-6-yl)-N2-[6-(2,5-dimethylmorpholino)pyridin-3-yl]-5-fluoro-2,4-pyrimidinediamine] | 100 to 500
2 | C[C@H]1COCCN1c1ccc(Nc2ncc(F)c(Nc3ccc4c(n3)NC(=O)C(C)(C)O4)n2)cn1 [Compound 138, N4-(2,2-dimethyl-3,4-dihydro-3-oxo-2H-pyrido[3,2-b][1,4]oxazin-6-yl)-5-fluoro-N2-[6-((3S)-3-methylmorpholino)pyridin-3-yl]-2,4-pyrimidinediamine] | 100 to 500
3 | CC1(C)Oc2ccc(Nc3nc(Nc4ccc(N5CCC(C(N)=O)CC5)cc4)ncc3F)nc2NC1=O [Compound 150, N4-(2,2-dimethyl-3,4-dihydro-3-oxo-2H-pyrido[3,2-b][1,4]oxazin-6-yl)-5-fluoro-N2-[4-(4-(aminocarbonyl)piperidin-1-yl)phenyl]-2,4-pyrimidinediamine] | 100 to 500
4 | CC1(C)Oc2ccc(Nc3nc(Nc4ccc(N5CCC(F)(F)CC5)cc4)ncc3F)nc2NC1=O [Compound 29, N4-(2,2-dimethyl-3,4-dihydro-3-oxo-2H-pyrido[3,2-b][1,4]oxazin-6-yl)-5-fluoro-N2-[4-(4,4-difluoro-1-piperidinyl)phenyl]-2,4-pyrimidinediamine] | 1000 to 100000
5 | CCCN1C(=O)COc2ccc(Nc3nc(Nc4ccc(N5CCOCC5)c(C(F)(F)F)c4)ncc3F)nc21 [Compound 148, N4-(3,4-dihydro-3-oxo-4-propyl-2H-pyrido[3,2-b][1,4]oxazin-6-yl)-5-fluoro-N2-[4-morpholino-3-(trifluoromethyl)phenyl]-2,4-pyrimidinediamine] | < 100
6 | [2H]C1([2H])OC([2H])([2H])C([2H])([2H])N(c2ccc(Nc3ncc(F)c(Nc4ccc5c(n4)NC(=O)CO5)n3)cn2)C1([2H])[2H] [Compound 106, N4-(3,4-dihydro-3-oxo-2H-pyrido[3,2-b][1,4]oxazin-6-yl)-5-fluoro-N2-[6-(2,2,3,3,5,5,6,6-d8-morpholino)pyridin-3-yl]-2,4-pyrimidinediamine] | < 100
7 | CC1(C)Oc2ccc(Nc3nc(Nc4ccc(N5CC(O)C5)nc4)ncc3F)nc2NC1=O [Compound 146, N4-(2,2-dimethyl-3,4-dihydro-3-oxo-2H-pyrido[3,2-b][1,4]oxazin-6-yl)-5-fluoro-N2-[6-(3-hydroxyazetidin-1-yl)pyridin-3-yl]-2,4-pyrimidinediamine] | 1000 to 100000
8 | CC1(C)CN(c2ccc(Nc3ncc(F)c(Nc4ccc5c(n4)NC(=O)C4(CCC4)O5)n3)cc2)CCO1 [Compound 124, N2-[4-(2,2-Dimethylmorpholino)phenyl]-5-fluoro-N4-(3′-oxo-3′,4′-dihydrospiro[cyclobutane-1,2′-pyrido[3,2-b][1,4]oxazine]-6-yl)-2,4-pyrimidinediamine] | 1000 to 100000
9 | C[C@@H]1CN(c2ccc(Nc3ncc(F)c(Nc4ccc5c(n4)NC(=O)C(C)(C)O5)n3)cn2)C[C@H](C)O1 [Compound 96, rac-Cis-N4-(2,2-dimethyl-3,4-dihydro-3-oxo-2H-pyrido[3,2-b][1,4]oxazin-6-yl)-N2-[6-(2,6-dimethylmorpholino)pyridin-3-yl]-5-fluoro-2,4-pyrimidinediamine] | 100 to 500
10 | CCOC[C@H]1CN(c2ccc(Nc3ncc(F)c(Nc4ccc5c(n4)NC(=O)CO5)n3)cn2)CCO1 [Compound 102, N4-(3,4-dihydro-3-oxo-2H-pyrido[3,2-b][1,4]oxazin-6-yl)-N2-[6-(((2R)-2-ethoxymethyl)morpholino)pyridin-3-yl]-5-fluoro-2,4-pyrimidinediamine] | 100 to 500
11 | CC1(C)CN(c2ccc(Nc3ncc(F)c(Nc4ccc5c(n4)NC(=O)C(C)(C)O5)n3)cn2)CCO1 [Compound 8, N4-(2,2-dimethyl-3,4-dihydro-3-oxo-2H-pyrido[3,2-b][1,4]oxazin-6-yl)-5-fluoro-N2-[6-(2,2-dimethylmorpholino)pyridin-3-yl]-2,4-pyrimidinediamine] | 100 to 500
12 | CCOC1CCN(c2ccc(Nc3ncc(F)c(Nc4ccc5c(n4)NC(=O)C(C)(C)O5)n3)cc2)CC1 [Compound 85, N4-(2,2-dimethyl-3,4-dihydro-3-oxo-2H-pyrido[3,2-b][1,4]oxazin-6-yl)-5-fluoro-N2-[4-(4-ethoxypiperidin-1-yl)phenyl]-2,4-pyrimidinediamine] | 100 to 500
13 | CC1(C)Oc2ccc(Nc3nc(Nc4ccc(N5CCNC(=O)C5)cc4)ncc3F)nc2NC1=O [Compound 151, N4-(2,2-dimethyl-3,4-dihydro-3-oxo-2H-pyrido[3,2-b][1,4]oxazin-6-yl)-5-fluoro-N2-[4-(3-oxopiperazin-1-yl)phenyl]-2,4-pyrimidinediamine] | 100 to 500
14 | CC1(C)Oc2ccc(Nc3nc(Nc4ccc(N5CCOCC5)c(OC(F)F)c4)ncc3F)nc2NC1=O [Compound 25, N4-(2,2-dimethyl-3,4-dihydro-3-oxo-2H-pyrido[3,2-b][1,4]oxazin-6-yl)-5-fluoro-N2-[3-difluoromethoxy-4-morpholinophenyl]-2,4-pyrimidinediamine] | 1000 to 100000
15 | C[C@@H]1CN(c2ccc(Nc3ncc(F)c(Nc4ccc5c(n4)NC(=O)CO5)n3)cn2)C[C@H](C)O1 [Compound 95, rac-Cis-N4-(3,4-dihydro-3-oxo-2H-pyrido[3,2-b][1,4]oxazin-6-yl)-N2-[6-(2,6-dimethylmorpholino)pyridin-3-yl]-5-fluoro-2,4-pyrimidinediamine] | 100 to 500
16 | COc1cc(Nc2ncc(F)c(Nc3ccc4c(n3)NC(=O)CO4)n2)ccc1C1CCOCC1 [Compound 49, N4-(3,4-dihydro-3-oxo-2H-pyrido[3,2-b][1,4]oxazin-6-yl)-5-fluoro-N2-[-3-methoxy-4-tetrahydropyranophenyl]-2,4-pyrimidinediamine] | < 100
17 | CN(C[C@H]1CCCO1)c1ccc(Nc2ncc(F)c(Nc3ccc4c(n3)NC(=O)C(C)(C)O4)n2)cn1 [Compound 111] | 100 to 500
18 | COC1CN(c2ccc(Nc3ncc(F)c(Nc4ccc5c(n4)NC(=O)C(C)(C)O5)n3)cn2)C1 [Compound 69, N4-(2,2-dimethyl-3,4-dihydro-3-oxo-2H-pyrido[3,2-b][1,4]oxazin-6-yl)-5-fluoro-N2-[6-(3-methoxyazetidin-1-yl)pyridin-3-yl]-2,4-pyrimidinediamine] | > 100000
19 | O=C1COc2ccc(Nc3nc(Nc4ccc(N5C[C@@H]6C[C@H]5CO6)cc4)ncc3F)nc2N1 [Compound 37, N4-(3,4-dihydro-3-oxo-2H-pyrido[3,2-b][1,4]oxazin-6-yl)-5-fluoro-N2-[4-((1S,4S)-5-oxa-2-aza-bicyclo[2.2.1]heptan-2-yl)phenyl]-2,4-pyrimidinediamine] | 100 to 500
20 | C[C@@H]1COCCN1c1ccc(Nc2ncc(F)c(Nc3ccc4c(n3)NC(=O)CO4)n2)cc1 [Compound 82] | 100 to 500
21 | C[C@H]1CN(c2ccc(Nc3ncc(F)c(Nc4ccc5c(n4)NC(=O)C(C)(C)O5)n3)cc2)CCO1 [Compound 79, N4-(2,2-dimethyl-3,4-dihydro-3-oxo-2H-pyrido[3,2-b][1,4]oxazin-6-yl)-5-fluoro-N2-1-2,4-pyrimidinediamine] | 100 to 500

same assay, conditions: anti-IgG stimulation, activity of tryptase released upon degranulation

Row | Compound | IC50 [nM]
22 | CC1(C)Oc2ccc(Nc3nc(Nc4ccc(N5CCOCC5)nc4)ncc3F)nc2NC1=O [Compound 3, N4-(2,2-dimethyl-3,4-dihydro-3-oxo-2H-pyrido[3,2-b][1,4]oxazin-6-yl)-5-fluoro-N2-[6-morpholinopyridin-3-yl]-2,4-pyrimidinediamine] | < 100
